Values quoted from earlier work in article PMC6831561, “Pharmacological and Behavioral Effects of the Synthetic Cannabinoid AKB48 in Rats” (Frontiers in Neuroscience, 2019).
Like-named read-outs stand apart in the source and are kept apart here.

Tested on: extracellular DA levels
Conditions: ref De Luca et al., 2015, cited from earlier work

In the case of CCCCCn1cc(C(=O)c2cccc3ccccc23)c2ccccc21 [JWH-018, Naphthalen-1-yl-(1-pentylindol-3-yl)methanone], the “max increase of DA in the NAc shell” value (JWH-018 0.25 mg/kg ip, from 20 to 70 min, Miliano et al., 2016) is listed as “about 60%”, the “DA release in the NAc shell” value (JWH-018 0.25 mg/kg) is listed as “increased DA release” and the “DA release in the NAc shell” value (JWH-018 high doses (1 and 3 mg/kg)) is listed as “no effect”. For the same compound, the “DA release in the NAc shell” value (JWH-018 lower (0.125 mg/kg) and higher (0.50 mg/kg) doses) was “ineffective”.
